Consider two molecules from PMC3479105, “K-134, a Phosphodiesterase 3 Inhibitor, Prevents Brain Damage by Inhibiting Thrombus Formation in a Rat Cerebral Infarction Model” (PLoS ONE, 2012).

For data set [1], the system named is photothrombotic middle cerebral artery (MCA) occlusion. In words: Photothrombotic MCA occlusion time in rat stroke model. The note with it: SD rats, n = 12, control 4.1±0.4 min. It is filed as in vivo. On the procedure: (§1) Brain infarction was produced by photothrombotic MCA occlusion essentially as reported previously. K-134 and cilostazol were administered to SD rats 2 h and 3 h before irradiation for MCA occlusion, respectively (n = 12), because K-134 reached plasma peak levels at 1–2 h, and cilostazol and its active metabolites (OPC-13015 and OPC-13213) reached at >3 h (Table S1) after oral administration in conscious male SD rats under fed conditions. Rats were anesthetized by intraperitoneal administration of 50 mg/kg of sodium pentobarbital (Kyoritsu Pharmaceutical Co., Ltd., Nara, Japan). Then, a polyethylene catheter for administration of rose bengal was placed in the left femoral vein. Rats were mounted on a brain stereotactic apparatus, and body temperature was maintained at 37°C with a heating pad. The left temporalis muscle was partially cut after incision of the scalp, and craniotomy was performed using a dental drill under an operating microscope. The fiber of a xenon lamp (Model L-4887; Hamamatsu Photonics Co., Ltd., Shizuoka, Japan) was placed on the MCA for irradiation (wavelength: 540 nm, 800000 lux), and the probe of the laser Doppler flow meter (ALF21R; Advance Co., Ltd., Tokyo, Japan) was placed on the MCA distal to the fiber. After 2 min of irradiation, rose bengal (25 mg/kg/mL; Sigma Aldrich Co., MO, USA) was injected for the next 2 min. The MCA was continuously irradiated for 8 min. Blood flow was measured for 18 min from the commencement of irradiation. The MCA occlusion time was determined from blood flow data. When blood flow continued beyond the observation period, the occlusion time was regarded as 16 min. After surgery, the incision site was closed with sutures, and rats were returned to their cages.

The subject of data set [2] is photothrombotic cerebral infarction model. Description: Infarct volume 24 h after photothrombotic MCA occlusion. Particulars: for infarct volume: 24 h after MCA occlusion, control 131.4±18.9 mm^3; for bleeding in the cerebrum observed macroscopically: rats treated with K-134 and cilostazol in photothrombotic stroke model. Format: in vivo, rat. On the procedure:
as §1
Twenty-four hours after MCA occlusion, rats were sacrificed by an overdose of pentobarbital and cutting an abdominal vein. The brain was immediately removed, cooled with cold spray (Pip Co., Ltd., Osaka, Japan), and cut into six slices (2 mm thick) using a slicer (RBSC-02; Neuro Science Inc., Tokyo, Japan) and razor (FA-10; Feather Razor, Co., Ltd., Osaka, Japan). The cutting base point (0 mm) was set at the position of bregma, and brains were cut at −2, −4, 0, +2, +4, +6, +8 mm from the base point. The brain slices were stained with 1% (w/v) 2,3,5-triphenyl-2H-tetrazolium chloride (TTC; Tokyo Chemical Industry Co., Ltd., Tokyo, Japan) in saline solution at 37°C for 20 min. The stained slices were photographed with a digital camera (CAMEDIA E-10; Olympus Co., Ltd., Tokyo, Japan). Whole brain areas and infarcted areas were quantified by image analysis (Win ROOF; Mitani Co., Ltd., Tokyo, Japan), and infarct volume were calculated with the trapezoidal rule.

The subject of the next data set is rat platelet aggregation. Description: Rat platelet aggregation in vitro (PRP, aggregometer). Format: cell-based. The protocol:
(§2) Platelet-rich plasma (PRP) was prepared by centrifugation (900 rpm, 15 min, at room temperature) of blood (05PR-22 centrifuge with a 03 rotor; Hitachi, Ltd., Tokyo, Japan), and the platelet count was adjusted to 5×10^5/µL with platelet-poor plasma prepared by centrifugation (3000 rpm, 10 min, at room temperature). PRP was incubated with antiplatelet agents at 37°C for 3 min and stimulated with collagen (final concentration, 15 µg/mL; MC Medical Inc., Tokyo, Japan) or adenosine diphosphate (ADP) (final concentration, 7.5 µM; MC Medical Inc.) (n = 5). Platelet aggregation was quantified by measuring the area under the curve (AUC) during the 5-min period after addition of trigger using a light transmittance aggregometer (PAM-8C; Mebanix Co., Ltd., Tokyo, Japan).

Data set [3] concerns mouse platelet aggregation. Description: Mouse platelet aggregation in vitro (PRP, aggregometer). It is filed as cell-based. The protocol: as §2
Data set [4] concerns arteriovenous shunt thrombus formation. In words: Arteriovenous shunt thrombosis model. The note with it: for Occluded/Total: n = 12, control 11/12; for Occlusion (%): control 92; for ED50: Rattus norvegicus, rats, single oral dose 90 min before creation of the arteriovenous shunt, read-out: ED50, incidence of occlusive shunt thrombi. Format: in vivo, rat. An excerpt: (§3) Immediately after a single oral administration of the test compound, SD rats were anesthetized by subcutaneous injection of 1.2 g/kg of urethane (n = 12). Ninety minutes after oral administration of a single dose of K-134 or cilostazol, one end of a polyethylene catheter (size 3, 24 cm; Hibiki, Tokyo, Japan) filled with physiological saline was inserted into the left jugular vein, with the other end of the catheter inserted into the right common carotid artery to create a loop. The end of the catheter was removed from the jugular vein 4 h after creation of the loop. A thrombus was then regarded to have been formed when blood no longer ran from the catheter. […] The serum concentrations of K-134 and cilostazol were determined by high-performance liquid chromatography (HPLC).

Data set [5] in a line: Plasma concentration in rat arteriovenous shunt model. It is filed as in vivo. Particulars: SD, n = 6.
Source text: as §3

A short description of data set [6]: Electron spin resonance (ESR) radical scavenging. Particulars: ESR experiments, data not shown. From the text: In the photothrombotic cerebral infarction model, photoactivation of rose bengal by illumination with green light results in reactive oxygen intermediates (predominantly singlet oxygen and superoxide). […] Therefore, we concluded that the observed inhibitory effects of K-134 on photothrombosis in this model are relevant to its antiplatelet activity but not radical scavenging activity.

The next data set has as its system PDE2. Also noted: method as in PMID 10644042. Particulars: read-out: IC50 toward PDE2; cited from earlier work.
In another data set the test system is PDE3A. Also noted: method as in PMID 10644042. The note with it: read-out: IC50 toward PDE3A; cited from earlier work.
For the next data set, the system named is PDE3B. Set-up: method as in PMID 10644042. The note with it: read-out: IC50 toward PDE3B; cited from earlier work.
A further data set has as its system PDE4. Also noted: method as in PMID 10644042. Particulars: read-out: IC50 toward PDE4; cited from earlier work.
Another data set has as its system PDE5. Also noted: method as in PMID 10644042. Particulars: read-out: IC50 toward PDE5; cited from earlier work.
[7] abbreviates: ADP 7.5 µM, n = 5, read-out: IC50, rat platelet aggregation induced by ADP.
Setting [8] is: collagen 15 µg/mL, n = 5, read-out: IC50, rat platelet aggregation induced by collagen.

Read-outs that look alike come from different tables or passages of the source. Marks after values point to notes of the source that are not given here.

On to `O=C(NCCCOc1ccc2[nH]c(=O)ccc2c1)N(C1CC1)[C@@H]1CCCC[C@H]1O` [K-134], for which the MCA occlusion time in data set [1] (10 mg/kg oral preadministration, mean ± SEM) came to 7.9 ± 1.1 min; in [1] (30 mg/kg oral preadministration, mean ± SEM), 9.1 ± 1.6 min. Also, the infarct volume is on record as 92.0±14.7 mm^3 in data set [2] (10 mg/kg oral, not significant) and 62.1±12.9 mm^3 in data set [2] (30 mg/kg oral, significant). In addition, the “bleeding in the cerebrum observed macroscopically” value in data set [2] was “No bleeding”. Also, the concentration for half-maximal inhibition (IC50) (usually the concentration that gives 50% inhibition) in the data set on rat platelet aggregation (setting [7]) was 3.2 µM; in the data set with rat platelet aggregation (setting [8]) it was 2.5 µM; in data set [3] (ADP, read-out: IC50, mouse platelet aggregation induced by ADP) it was 6.7 µM; in [3] (collagen, read-out: IC50, mouse platelet aggregation induced by collagen), 5.5 µM; in the data set with PDE2, more than 300 µM; in the data set on PDE3A, 0.1 µM. Moreover, the results for the IC50 in the data set with PDE3B, in the data set on PDE4 and in the data set with PDE5 were 0.28 µM, more than 300 µM and 12.1 µM, respectively. The figures for the “Inhibition (%) of arteriovenous shunt thrombus formation” value in data set [4] (3 mg/kg single oral dose), in data set [4] (10 mg/kg single oral dose) and in data set [4] (30 mg/kg single oral dose) were 18%, 64% and 64%, respectively. In addition, the Occluded/Total in data set [4] (3 mg/kg single oral dose) is 9/12; in data set [4] (10 mg/kg single oral dose), 4/12*; in [4] (30 mg/kg single oral dose), 4/12*. For the same molecule, the “Occlusion (%)” value is reported as 75% in [4] (3 mg/kg single oral dose), 33% in data set [4] (10 mg/kg single oral dose) and 33% in data set [4] (30 mg/kg single oral dose). For the same molecule, in [4], the ED50 (commonly the midpoint of the dose-response relation) came out at 11 mg/kg. Moreover, the peak concentration (Cmax) (in general, the peak of the concentration-time curve) in data set [5] (10 mg/kg oral) worked out at 430 ± 80 nM. The “scavenging activities against singlet oxygen and superoxide anion radical” value in [6] is on record as “did not show scavenging activities”.

`O=C1CCc2cc(OCCCCc3nnnn3C3CCCCC3)ccc2N1` [cilostazol] registered an MCA occlusion time in data set [1] (300 mg/kg oral preadministration, not statistically significant) of 6.9 ± 1.3 min. For the same molecule, in data set [2] (300 mg/kg oral, not significant), the infarct volume came to 95.8±14.8 mm^3. Moreover, the “bleeding in the cerebrum observed macroscopically” value in [2] was “No bleeding”. Besides, the IC50 in the data set with rat platelet aggregation (setting [7]) is 83 µM; in the data set with rat platelet aggregation (setting [8]), 42 µM; in the data set on PDE2, 45.2 µM; in the data set with PDE3A it was 0.2 µM; in the data set on PDE3B, 0.38 µM; with PDE4, 88 µM. Besides, in the data set with PDE5, the IC50 is 4.4 µM. Also, the “Inhibition (%) of arteriovenous shunt thrombus formation” value in data set [4] (10 mg/kg single oral dose) is recorded as 37%; in data set [4] (30 mg/kg single oral dose), 64%; in data set [4] (100 mg/kg single oral dose) it was 73%. Moreover, the Occluded/Total in data set [4] (10 mg/kg single oral dose) is 7/12; in [4] (30 mg/kg single oral dose), 4/12*; in data set [4] (100 mg/kg single oral dose), 3/12**. Further, the entries for the “Occlusion (%)” value in data set [4] (10 mg/kg single oral dose), in data set [4] (30 mg/kg single oral dose) and in data set [4] (100 mg/kg single oral dose) were 58%, 33% and 25%, respectively. In addition, in [4], the 50% effective dose (ED50) stood at 18 mg/kg. In addition, in [5] (30 mg/kg oral), the concentration peaked (Cmax) at 2080 ± 280 nM. Besides, in data set [6], the “scavenging activities against singlet oxygen and superoxide anion radical” value is recorded as “did not show scavenging activities”.
